Data: patent US11279744B2, “Neuropeptide Y fragment capable of releasing hematopoietic stem cells into blood and treating osteoporosis” (Kyungpook National University Industry-Academic Cooperation …, priority 2017, dated 2022)
No end group written: not given here.

Key:
[1] = system: hematopoietic stem cell adhesion factors (Sdf-1a, KitI, Angpt1) present in osteoblasts; assay: expression of hematopoietic stem cell adhesion factors in osteoblasts, real-time quantitative PCR; format: cell-based, mouse; conditions: 10 nM peptide for 3 days; compared to osteoblasts (control) not treated with peptides; fold change
Description: All mice used in the experiment were 6 to 8 weeks old mice, C57BL/6 mice, and purchased from Jackson Laboratory (Bar Harbor, Me., USA). NPY (21-28) (SEQ ID NO: 1), NPY (24-31) (SEQ ID NO: 2), NPY (29-36) (SEQ ID NO: 3), NPY D25 (21-28) (SEQ ID NO: 4), NPY D26 (21-28) (SEQ ID NO: 5), NPY D25, 26 (21-28) (SEQ ID NO: 6), NPY (21-36) (Osteopep2) (SEQ ID NO: 7) were prepared from Anygen. Full length NPY (SEQ ID NO: 8) was purchased from Bachem. 10 nM of each peptide was diluted in each medium and injected for in vitro experiments. The NPY D^25(21-28) refers to a peptide in which arginine, the fifth amino acid of the amino acid sequence of NPY (21-28), is modified to D-type, the NPY D^26(21-28) refers to a peptide in which the sixth amino acid histidine is modified to D-form, and the D^25,26(21-28) refers to a peptide in which both the fifth and sixth amino acids are modified to D-form, respectively.
Four to six weeks old C57BL/6 mice were sacrificed after anesthesia, and then tibias and femurs were dissected. Bone marrow was harvested from tibias and femurs and single cell suspensions were obtained using a 40 μm cell strainer (Becton-Dickinson LAβware, Franklin Lakes, N.J.). Approximately […] were dispensed into 75-cm 2 flasks containing mesenchymal stem cells Stimulatory Supplements with antibiotics (Stem Cell Technologies, Inc) and MesenCult™ MSCBasal medium. The cells were incubated for 1 week and further incubated for 3 weeks with StemXVivo Osteogenic/Adipogenic Base Media (R & D systems) supplemented with StemXVivo Osteogenic supplement (20×) and penicillin-streptomycin (100×) for differentiation into osteoblasts.
Real-time quantitative PCR was used to measure expression levels of hematopoietic stem cell adhesion factors (Sdf-1a, KitI, Angpt1) present in osteoblasts. Total RNA was extracted from cell eluate and bone marrow cells using the RNeasy Plus mini kit (Qiagen, Korea, Ltd), and cDNAs were synthesized from 5 μg total RNA using a kit in Clontech (Mountain View, Calif.). In addition, using a Corbett research RG-6000 real-time PCR instrument, Real-time quantitative PCR was performed at 95° C. for 10 minutes; at 95° C., for 10 seconds; at 58° C., for 15 seconds; at 72° C. for 20 seconds as one cycle, and 40 cycles were repeated.
First, bone marrow was harvested from 4 to 6 weeks old C57BL6 mice, and mesenchymal stem cells (BM-MSCs) in bone marrow were collected, and then cultured for 3 weeks in osteoblast differentiation induction medium for the differentiation into osteoblasts. After 28 days, each peptide was treated with 10 nM for 3 days, and bone cells were collected and examined for expression levels of three adhesion factors by real-time quantitative PCR. Osteopep2 and its parent NPY were used as positive controls.

[2] = system: animal models of osteoporosis; assay: Micro CT bone density in animal models of osteoporosis; format: in vivo, mouse; conditions: OVX mice, 50 μg/kg i.p. twice a day for 4 weeks; femur microCT; compared to PBS
Description: To make an osteoporosis model, 10-18 12 weeks old female mice per group underwent ovarian ablation. A week later, 50 μg/kg of NPY(21-28), NPY D^25(21-28), NPY D^26(21-28), NPY D^25,26(21-28), Osteopep2, NPY and 100 μl of PBS(Gibco) were intraperitoneally administered twice a day for 4 weeks at 12 hour intervals. Alendronate (Sigma), used as a competitive drug, was intraperitoneally administered once a week for 4 weeks at a dose of 50 μg/kg. As a control group, only Sham model of osteoporosis was performed by subcutaneous dissection of female mouse. Mice were placed in experimental groups using the Block randomization method, and all mouse experiments were approved through the Kyungpook National University Institutional Animal Care and Use Committee. The femurs were separated from the mouse and refrigerated in 80% ethanol, and in order to measure change of bone density, the bone volume/total volume and trabecular thickness were measured by analyzing the area between 0.7 mm and 2.3 mm from the growth plate baseline with the Quantum FX microCT Imaging System. Femurs were separated from mice after the last administration of NPY (21-28) at 4 weeks. To determine the change of bone density, bone density (bone volume/total volume) and bone tissue thickness (trabecular thickness) were measured with the Quantum FX microCT Imaging System. Femurs were separated from mice after the last administration of NPY D^25(21-28), NPY D^26(21-28), and NPY D^25,26(21-28) at 4 weeks. To determine the change of bone density, bone density (bone volume/total volume) and bone tissue thickness (trabecular thickness) were measured with the Quantum FX microCT Imaging System.

[3] = system: osteoclasts in bone marrow; assay: TRAP staining of osteoclasts in bone marrow of osteoporosis animal models; format: in vivo, mouse; conditions: OVX mice, 50 μg/kg i.p. twice a day for 4 weeks; compared to PBS
Description: To make an osteoporosis model, 10-18 12 weeks old female mice per group underwent ovarian ablation. A week later, 50 μg/kg of NPY(21-28), NPY D^25(21-28), NPY D^26(21-28), NPY D^25,26(21-28), Osteopep2, NPY and 100 μl of PBS(Gibco) were intraperitoneally administered twice a day for 4 weeks at 12 hour intervals. Alendronate (Sigma), used as a competitive drug, was intraperitoneally administered once a week for 4 weeks at a dose of 50 μg/kg. As a control group, only Sham model of osteoporosis was performed by subcutaneous dissection of female mouse. Mice were placed in experimental groups using the Block randomization method, and all mouse experiments were approved through the Kyungpook National University Institutional Animal Care and Use Committee.
The femurs were separated from the mice and fixed in 4% paraformaldehyde for 24 hours, and tissue was decalcified in 10% EDTA for 5 weeks. It was then dehydrated with a series of diluted alcohols, paraffinized, and prepared into […] paraffin sections.
For TRAP staining, sections were deparaffinized, stained with 1.33 mM Fast Red Violet LB Salt (Sigma-Aldrich) in 50 mM sodium acetate (pH 5.0) containing 225 μM Naphthol AS-MX phosphate (Sigma-Aldrich, St Louis, Mo., USA), 0.84% N, N-dimethylformamide (Sigma-Aldrich) and 50 mM sodium tartrate, and incubated for 30 minutes. After incubation, the sections were washed with distilled water and counterstained with 1% methyl green.
Histomorphometric analysis was performed using the OsteoMeasure program (Extensive interactive Bone Histomorphometry Analysis System).
After the last administration at 4 weeks of NPY (21-28), the femurs were separated from the mice and the number of osteoclasts in the bone marrow was measured by TRAP staining.
After the last administration at 4 weeks of NPY D^25(21-28), NPY D^26(21-28), and NPY D^25,26(21-28), the femurs were separated from the mice and the number of osteoclasts in the bone marrow was measured by TRAP staining.

Substance	expression levels of Sdf-1a, KitI, and Angpt1 in osteoblasts [1]	bone tissue thickness (trabecular thickness) [2]	percentage of bone density (BV/TV) [2]	number of TRAP positive osteoclasts in bone marrow (Number of osteoclast/Bone surface) [3]	osteoclast surface (Osteoclast surface/Bone surface) [3]
NPY (24-31): recombinant peptide consisting of eight amino acids of NPY, SEQ ID NO: 2 (LRHYINLI; synthetic neuropeptide Y fragment (24-31))	decreased only in osteoblasts treated with NPY (21-28)	–	–	–	–
NPY (29-36): recombinant peptide consisting of eight amino acids of NPY, SEQ ID NO: 3 (NLITRQRY; ends and bridges not checked)	decreased only in osteoblasts treated with NPY (21-28)	–	–	–	–
NPY: full length neuropeptide Y purchased from Bachem, used as positive control [reference compound]	–	increased	increased	reduced	reduced
